Source: patent US9107411B2, “Indolecarboxamides and benzimidazolecarboxamides as insecticides and acaricides” (BAYER INTELLECTUAL PROPERTY GMBH, priority 2011, dated 2015)

What was measured:
Type in all cases: in vivo
Lucilia cuprina larvae = assay: Lucilia cuprina test (LUCICU); conditions: application rate 100 ppm; treated horse meat; after 2 days
Summary of the method: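 Mortality scored as percent of larvae killed 2 days after exposure. Horse meat was treated with the compound, formulated from DMSO stock diluted with water to the test concentration, and populated with roughly 20 larvae.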

Phaedon cochleariae = assay: Phaedon test (PHAECO spray treatment); conditions: application rate 100 g/ha, Chinese cabbage leaf discs, after 7 days
Summary of the method: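 Larval mortality was assessed 7 days after Phaedon cochleariae larvae were placed on dried, spray-treated Brassica pekinensis leaf discs. The formulation was an acetone/dimethylformamide concentrate with alkylaryl polyglycol ether emulsifier, diluted in emulsifier-containing water. Results are given as % kill, from 0 (no larvae dead) to 100 (all dead).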

Myzus persicae [1] = assay: Myzus persicae spray test (MYZUPE - OP/Carb-resistant); conditions: application rate 100 ppm; aubergine plants; after 6 days
Procedure: Myzus persicae Spray Test (MYZUPE—OP/Carb-Resistant)
Solvent: 3 parts by weight of dimethylformamide
Emulsifier: 1 part by weight of polyoxyethylene alkylphenyl ether
To produce an appropriate active ingredient formulation, 1 part by weight of active ingredient is mixed with the stated amounts of solvent and emulsifier, and the concentrate is diluted with emulsifier-containing water to the desired concentration. If required, ammonium salts or ammonium salts and penetrants are additionally added in a concentration of 1000 ppm.
Aubergine plants (Solanum melongena) at the 2-leaf stage, which have been infested with a mixed population of the green peach aphid (Myzus persicae), are sprayed with an active ingredient formulation of the desired concentration.
After 6 days, the efficacy in % is determined. 100% means that all of the aphids have been killed; 0% means that none of the aphids have been killed.

Spodoptera frugiperda = Spodoptera frugiperda test (SPODFR spray treatment); conditions: application rate 100 g/ha; maize leaf discs; after 7 days
Summary of the method: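 Mortality read-out at 7 days, given as % efficacy, where 100% means every caterpillar dead and 0% none. Caterpillars were placed on dried maize leaf discs that had been sprayed with test formulation. That formulation was an acetone/dimethylformamide concentrate diluted in emulsifier-containing water.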

[2] = tested on: adult engorged Boophilus microplus females of the SP-resistant Parkhurst strain; assay: Boophilus microplus test (DIP); conditions: application rate 100 ppm, after 7 days
Procedure: Boophilus microplus Test (DIP)
Test animals: adult engorged Boophilus microplus females of the SP-resistant Parkhurst strain
Solvent: dimethyl sulphoxide
10 mg of active ingredient are dissolved in 0.5 ml of dimethyl sulphoxide. For the purpose of preparing a suitable formulation, the active ingredient solution is diluted with water to the concentration desired in each case.
This active ingredient formulation is pipetted into tubes. 8-10 ticks are transferred into a further tube with holes. The tube is immersed into the active ingredient formulation, and all ticks are completely wetted. After the liquid has run out, the ticks are transferred onto filter discs in plastic dishes and stored in a climate-controlled room.
The activity is assessed after 7 days by laying of fertile eggs. Eggs whose fertility is not outwardly visible are stored in glass tubes in a climate-controlled cabinet until the larvae hatch. An efficacy of 100% means that none of the ticks has laid any fertile eggs.

Myzus persicae [3] = assay: Myzus test (MYZUPE spray treatment); conditions: application rate 100 g/ha; Chinese cabbage leaf discs; after 6 days
Summary of the method: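 Chinese cabbage leaf discs carrying all aphid stages sprayed with active ingredient in acetone/DMF with alkylaryl polyglycol ether emulsifier, diluted in emulsifier-containing water to the desired concentration. Efficacy (% aphids killed) scored after 6 days; 100% = all killed, 0% = none killed.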

Compound | efficacy (kill in %) (Lucilia cuprina larvae) [%] | efficacy in % (Phaedon cochleariae) [%] | efficacy in % (Myzus persicae [1]) [%] | efficacy in % (Spodoptera frugiperda) [%] | pest or weed control at 100 g/ha (Phaedon cochleariae; Phaedon cochleariae, foliar, 168 h, read-out: efficacy in %) [%] | efficacy (laying of fertile eggs) [2] [%] | efficacy in % (Myzus persicae [3]) [%]
C#CCn1c(C(=O)NC(c2ccc(F)c(C(F)(F)F)c2)C(F)(F)F)cc2cc(C(=O)NC3CC3)c(Cl)cc21 (stereo not shown) [Compound 6] | 100 | 100 | 90 | 100 |  |  | 
CCn1c(C(=O)NC(c2cccc(C(F)(F)F)c2)C(F)(F)F)cc2cc(C(=O)NC3(C#N)CC3)c(Cl)cc21 (stereo not shown) [Compound 7, 6-chloro-N^5-(1-cyanocyclopropyl)-1-ethyl-N^2-{2,2,2-trifluoro-1-[3-(trifluoromethyl)phenyl]ethyl}-1H-indole-2,5-dicarboxamide] | 100 |  | 98 | 100 | 100 | 100 | 90
